Test results: patent publication US20050100507A1, “Chemotactic peptide antagonists for imaging sites of inflammation” (Bracco Imaging S.p.A., priority 1998, published 2005)
Square brackets hold non-standard residues; d marks the D form. Ends that are not written are not given here. Peptide text beside a SMILES is read from it. * marks the point of attachment. 3‑but‑1‑enoxycarbonyl = 3-but-1-enoxycarbonyl (N-terminal capping group); 2‑quinoxazoyl = 2-quinoxazoyl (N-terminal capping group); Adamantane1carbonyl = O=C(C12CC3CC(CC(C3)C1)C2)*; N‑phenyl‑N‑methylcarbamoyl = CN(C(=O)*)c1ccccc1; trans‑cinnamoyl = O=C(/C=C/c1ccccc1)*; Cyclopropanecarbonyl = O=C(C1CC1)*; iso‑Boc = not defined here; Nle = CCCC[C@H](N)C(=O)O; 2Furoyl = O=C(c1ccco1)*; Boc = CC(C)(C)OC(=O)*; For = O=C*

Assays:
elicited rat PMNs [1] = type: cell-based; conditions: for EC50: 4 h; for % Control (1 uM) / % Control (10 uM): MPO release, PMNs without fMLF, ± S.E.M.; for % Control (1 uM): test peptide 1 uM; for % Control (10 uM): test peptide 10 uM
Protocol: (§1) Animals were sacrificed via administration of CO2 4 hours following peritoneal injection of 10 mL of 0.5% (w/v) oyster glycogen warmed to room temperature. Leukocyte harvesting via peritoneal lavage was performed using 20 mL of Hanks' buffered salt solution (HBSS−) containing 10 mM ethylene-diaminetetra-acetic acid (EDTA) disodium salt followed by a second lavage with 10 mL of HBSS− containing 10 mM EDTA. Exactly the same technique was performed on all rats with washes of the peritoneum prior to aspiration of samples approximating 1 minute. The volume of fluid recovered from each rat was approximately 20-25 mL and bloody lavages visibly containing significant red blood cell (RBC) populations were discarded.
(§2) Neutrophils isolated by peritoneal lavage were washed twice with 1 mL of HBSS− (without calcium chloride, magnesium chloride and magnesium sulfate) and centrifuged for ten minutes at 2000 rpms following each wash. PMNs utilized in functional assays were centrifuged at 25° C. while those used in binding assays were centrifuged at 4° C. to prevent internalization. A cold H2O RBC lysis was then performed with the addition of 9 mL of sterile ice-cold H2O and 1 mL of phosphate buffered saline (PBS) solution containing 0.1 M phosphate buffer, 0.027 M KCl and 1.37 M NaCl following resuspension of the sample in 1 mL of HBSS. Centrifugation was subsequently performed for ten minutes at 1600 rpms. White blood cell (WBC) differential stain containing saline, 2% acidic acid and phenol violet dye was used to identify the neutrophil population and trypan blue exclusion was used to determine viability of cells. As previously reported, 98% of leukocytes were neutrophils and approximately 95% of the cells were viable (Chen et al., 1996).
(§3) 0.5×10^6 PMNs per sample were incubated in 96-well Millipore Multiscreen 0.65 um filter plates. In a final volume of 150 uL, 50 uL of the respective fMLP analogues (10 uM to 1 pM) and/or fMLP (10 uM to 1.0 uM) were incubated with isolated PMNs pre-treated with cytochalasin B (5 ug/mL) for 10 minutes. Following a 30 minute incubation period at room temperature, the supernatant was collected into a 96-well polypropylene plate with the Millipore vacuum apparatus. A stock solution of o-phenylenediamine (OPD) was made to contain 2.5 mg of OPD, 5 ul of H2O2 and 10 mL HBSS+ and supernatant samples were subsequently incubated with 50 uL of OPD solution. The reaction was stopped after 2 minutes by the addition of 2.5M H2SO4. Photometric analysis was performed with the Thermomax Microplate Reader with optical density (O.D.490) values being read at a wavelength of 490 nm. Absorbance was measured against a blank containing 150 μl of HBSS+ which was subtracted from wells containing cells and the various treatments. MPO release was expressed as a percentage of the total release of myeloperoxidase in control wells containing cells ±fMLF.
(§4) The curve-fitting program Prism was used to calculate KD, IC50 and EC50 values by fitting data to the one-site binding equations A, B and C respectively. • A. Equation: One site binding (hyperbola) Y=Bmax*X/(KD+X) • B. Equation: One site competition Y=Bottom+(Top−Bottom)/(1+10^(X−LogIC50)); with x=log (concentration) and y=binding • C. […] Additionally, Graph fit software was used to perform Scatchard analysis of saturation binding data and to confirm KD and Bmax values generated by Prism software.

elicited rat PMNs [2] = test: Myeloperoxidase release in elicited rat PMNs co-stimulated with 0.1 uM fMLF; type: cell-based; conditions: for antagonist function on MPO release in fMLF stimulated rat PMNs: 0.1 uM fMLF, inhibition at 10 uM, result in words; for % Control MPO release (1 uM capping group + 0.1 uM fMLF): 1 uM test peptide + 0.1 uM fMLF; for % Control MPO release (1 uM capping group + 0.1 uM fMLF) / % Control MPO Release (10 uM capping group + 0.1 uM fMLF): ± S.E.M.; for % Control MPO Release (10 uM capping group + 0.1 uM fMLF): 10 uM test peptide + 0.1 uM fMLF
Protocol: as §1, §2
as §3, with “In a final volume of 150 uL, 50 uL of the respective fMLP analogues (10 uM to 1 pM) and/or fMLP (10 uM to 1.0 uM) were incubated with isolated PMNs pre-treated with cytochalasin B (5 ug/mL) for 10 minutes.” left out

Rat FPR = biological target: T1, Rat FPR (Rattus norvegicus, UniProt D4A7Q2); test: Competition binding with 6 nM 3H-fMLF to elicited rat PMNs; conditions: 6 nM 3H-fMLF, result in words; for competition binding of N-terminal modified NleLFK peptides (FIG. 8): peptides at 1 uM and 10 uM
T1 construct: endogenous in cells; host or cells: glycogen-elicited peritoneal neutrophils (PMNs) of Sprague-Dawley rats
T1 sequence (D4A7Q2 1-355): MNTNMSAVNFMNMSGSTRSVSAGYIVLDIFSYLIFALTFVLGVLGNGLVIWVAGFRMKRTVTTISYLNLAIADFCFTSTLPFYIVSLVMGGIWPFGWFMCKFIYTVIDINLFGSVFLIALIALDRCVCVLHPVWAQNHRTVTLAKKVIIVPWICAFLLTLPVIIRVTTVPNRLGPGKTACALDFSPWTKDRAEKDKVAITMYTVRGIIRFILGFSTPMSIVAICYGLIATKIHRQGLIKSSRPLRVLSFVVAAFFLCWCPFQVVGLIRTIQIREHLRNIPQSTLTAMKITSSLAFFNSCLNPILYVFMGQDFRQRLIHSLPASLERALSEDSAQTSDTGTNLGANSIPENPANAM
Protocol: as §1, §2
Competition binding assays for N-terminal capping groups and Re-libraries were conducted with 6 nM ^3H-fMLP in addition to the unlabelled competing analogue added at 1.0 uM and 10 uM to each well. […] Total binding in the competition assays was assessed in the presence of 1.0×10^6 PMNs per sample while non-specific binding was determined in the absence of cells. Each condition was performed in quadruplicate. Total activity added to each sample was determined from cpms obtained from a sample containing 6 nM ^3H-fMLF. Data was expressed as specific binding in fmols and converted to percent of total ^3H-fMLF binding (% control).
After a 1 hour incubation period at 4° C., the samples were harvested with the Tomtec Mach III Cell Harvester by vacuum aspiration onto 1.5 um pore size Skatron glass-fibre filter mats pre-treated with 0.1% polyethylenimine (w/v) for approximately 24 hours. Sample wells received three consecutive 12 second washes with 0.9% saline solution and 5 mL of liquid scintillation fluid was added to collected filters. Filters were counted for 2 minutes in the Beckman β-counter following exposure to scintillation fluid for 15 hours. Data was expressed in terms of specific binding in fmols converted to percent of total ^3H-fMLF binding (% control).
as §4

Row | Compound | % Control (1 uM) (elicited rat PMNs [1]) | % Control (10 uM) (elicited rat PMNs [1]) | also measured
1 | CSCC[C@H](NC=O)C(=O)N[C@@H](CC(C)C)C(=O)N[C@@H](Cc1ccccc1)C(=O)O [fMLF, N-formyl-methionyl-leucyl-phenylalanine, reference compound] | – | – | EC50 (elicited rat PMNs [1]): 110 nM
2 | CSCC[C@H](NC=O)C(=O)N[C@@H](CC(C)C)C(=O)N[C@@H](Cc1ccccc1)C(=O)N[C@@H](CCCCN)C(=O)O [fMLFK, N-formyl-methionyl-leucyl-phenylalanyl-lysine, reference compound] (For-MLFK-OH) | – | – | EC50 (elicited rat PMNs [1]): 140 nM
3 | Capping Group 2: 2-methoxyacetyl N-terminal capping group attached to peptide NleLFK ({2‑methoxyacetyl}-[Nle]LFK) | 95.0 ± 15.7 % control | 97.1 ± 37.1 % control | –
4 | Capping Group 3: Furoyl N-terminal capping group attached to peptide NleLFK (2Furoyl-[Nle]LFK) | 93.0 ± 9.0 % control | 102.5 ± 9.0 % control | –
5 | Capping Group 4: Phenylthioacetyl N-terminal capping group attached to peptide NleLFK (phenylthioacetyl-[Nle]LFK) | 138.7 ± 28.6 % control | 119.7 ± 20.3 % control | –
6 | Capping Group 7: 3-but-1-enoxycarbonyl N-terminal capping group attached to peptide NleLFK ({3‑but‑1‑enoxycarbonyl}-[Nle]LFK) | 133.8 ± 13.3 % control | 229.3 ± 13.3 % control | –
7 | Capping Group 10: N-phenyl-N-methylcarbamoyl N-terminal capping group attached to peptide NleLFK ({N‑phenyl‑N‑methylcarbamoyl}-[Nle]LFK) | 94.7 ± 20.4 % control | 68.0 ± 17.4 % control | antagonist function on MPO release in fMLF stimulated rat PMNs (elicited rat PMNs [2]): exhibited antagonist function in fMLF stimulated cells; % Control MPO release (1 uM capping group + 0.1 uM fMLF) (elicited rat PMNs [2]): 171.2 ± 6.3 % control; % Control MPO Release (10 uM capping group + 0.1 uM fMLF) (elicited rat PMNs [2]): 121.3 ± 23.9 % control; competition binding of N-terminal modified NleLFK peptides (FIG. 8) (Rat FPR): did not significantly decrease the amount of ^3H-fMLF binding
8 | Capping Group 12: 2-acetamido-5-thiazolesulfonyl N-terminal capping group attached to peptide NleLFK ({2‑acetamido‑5‑thiazolesulfonyl}-[Nle]LFK) | 117.5 ± 7.8 % control | 175.5 ± 12.0 % control | –
9 | Capping Group 13: Adamantylcarbonyl N-terminal capping group attached to peptide NleLFK (Adamantane1carbonyl-[Nle]LFK) | 70.5 ± 14.9 % control | 71.7 ± 11.2 % control | antagonist function on MPO release in fMLF stimulated rat PMNs (elicited rat PMNs [2]): exhibited antagonist function in fMLF stimulated cells; % Control MPO release (1 uM capping group + 0.1 uM fMLF) (elicited rat PMNs [2]): 131.6 ± 30.9 % control; % Control MPO Release (10 uM capping group + 0.1 uM fMLF) (elicited rat PMNs [2]): 128.6 ± 40.9 % control; competition binding of N-terminal modified NleLFK peptides (FIG. 8) (Rat FPR): did not significantly decrease the amount of ^3H-fMLF binding
10 | Capping Group 14: 2-quinoxazoyl N-terminal capping group attached to peptide NleLFK ({2‑quinoxazoyl}-[Nle]LFK) | 117.2 ± 18.6 % control | 129.8 ± 6.0 % control | antagonist function on MPO release in fMLF stimulated rat PMNs (elicited rat PMNs [2]): significant inhibition; % Control MPO release (1 uM capping group + 0.1 uM fMLF) (elicited rat PMNs [2]): 323.2 ± 16.8 % control; % Control MPO Release (10 uM capping group + 0.1 uM fMLF) (elicited rat PMNs [2]): 239.8 ± 9.0 % control
11 | Capping Group 15: trans-cinnamoyl N-terminal capping group attached to peptide NleLFK ({trans‑cinnamoyl}-[Nle]LFK) | 133.1 ± 10.3 % control | 195.8 ± 14.3 % control | –
12 | N-t-BocMLFK: known antagonist used as standard in MPO release assay (Boc-MLFK) [reference compound] | 89.8 ± 32.5 % control | 86.7 ± 31.1 % control | –
13 | cycloproylcarbonyl-NleLFK (Cyclopropanecarbonyl-[Nle]LFK) [Capping Group 17] | 108.0 ± 14.5 % control | 91.8 ± 16.3 % control | inhibition of 3H-fMLF binding at 10 uM compared with iso-BocMLFK (FIG. 8) (Rat FPR; peptide 10 uM): inhibited ^3H-fMLF binding to a degree comparable with known antagonist iso-BocMLFK; competition binding of N-terminal modified NleLFK peptides (FIG. 8) (Rat FPR; listed as 17): do not nullify binding affinity; competition binding of N-terminal modified NleLFK peptides (FIG. 8) (Rat FPR; listed as cycloproylcarbonyl-NleLFK): inhibit ^3H-fMLF binding
14 | iso-BocMLFK: known antagonist, fMLP peptide analogue synthesized in-house ({iso‑Boc}-MLFK; reading uncertain) [reference compound] | 99.6 ± 16.5 % control | 94.7 ± 20.2 % control | antagonist function on MPO release in fMLF stimulated rat PMNs (elicited rat PMNs [2]): significantly inhibiting fMLF-stimulated MPO release; % Control MPO release (1 uM capping group + 0.1 uM fMLF) (elicited rat PMNs [2]): 215.4 ± 66.3 % control; % Control MPO Release (10 uM capping group + 0.1 uM fMLF) (elicited rat PMNs [2]): 179.9 ± 50.6 % control
